# Reference: patent publication US6610689B2, “HIV protease inhibitors based on amino acid derivatives” (priority 2001, dated 2003)
# Target: T1, HIV protease (Human immunodeficiency virus type 1 group M subtype B, UniProt P04585)
# T1 construct: A third viral enzyme known as protease then cleaves the polyproteins
# Experiment: Enzymatic Assay for Determining the Inhibition Constant (Ki) of Synthetic Compounds Targeting the HIV Protease (fluorometric FRET assay)
# Assay type: biochemical
# Conditions: not given
# Description: Enzymatic Assay for Determining the Inhibition Constant (Ki) of Synthetic Compounds Targeting the HIV Protease
# This is a fluorometric assay based on the cleavage by protease of a substrate carrying a donor group (EDANS) and an acceptor group (DABCYL) on each side of the cleavage site, interacting together through fluorescence resonance energy transfer (FRET) as described by Matayoshi et al. (Science 247:[…], 1990).
# After calculation of Vo and Vi, the inhibition constant (Ki) of the compound is determined using the equation of Henderson: [formula]
# where Vo=the enzyme's initial velocity
# Vi=the enzyme velocity in the presence of the inhibitory compound,
# [I]=inhlibitor concentration, [S]=substrate concentration,
# Km=Michaelis-Menten constant and Kiapp=apparent Ki
# Graphs are traced and the Ki determined using GraphPad Prism software v. 3.0.
row,SMILES,Ki [µM]
1,"CC(=O)Nc1ccc(S(=O)(=O)N[C@@H](Cc2ccccc2)C(=O)NCCCC[C@@H](C(=O)O)N(CC(C)C)S(=O)(=O)c2ccc(N)cc2)cc1 [Example 56, Nα-(4-Aminobenzenesulfonyl)-Nα-isobutyl-Nε-[N′α-(4-acetylaminobenzenesulfonyl)-L-phenylalanyl]-L-lysine]",0.0019
2,"COC(=O)[C@H](CCCCNC(=O)[C@H](Cc1ccccc1)NS(=O)(=O)c1cccs1)N(CC(C)C)S(=O)(=O)c1ccc(C)cc1 [Example 57, Nα-Isobutyl-Nα-(4-methylbenzenesulfonyl)-Nε-[N′α-(2-thiophenesulfonyl)-L-phenylalanyl]-L-lysine Methyl Ester]",> 0.3
3,"Cc1ccc(S(=O)(=O)N(CC(C)C)[C@@H](CCCCNC(=O)[C@H](Cc2ccccc2)NS(=O)(=O)c2cccs2)C(N)=O)cc1 [Example 58, Nα-Isobutyl-Nα-(4-methylbenzenesulfonyl)-Nε-[N′α-(2-thiophenesulfonyl)-L-phenylalanyl]-L-lysinamide]",0.0052
4,"Cc1ccc(S(=O)(=O)N(CC(C)C)[C@@H](CCCCNC(=O)[C@H](Cc2ccccc2)NS(=O)(=O)c2cccs2)C(=O)NO)cc1 [Example 59, Nα-Isobutyl-Nα-(4-methylbenzenesulfonyl)-Nε-[N′α-(2-thiophenesulfonyl)-L-phenylalanyl]-L-lysine N-hydroxylamide]",0.013
5,"Cc1ccc(S(=O)(=O)N(CC(C)C)[C@@H](CCCCNC(=O)[C@H](Cc2ccccc2)NS(=O)(=O)c2cccs2)C(=O)NCCO)cc1 [Example 60, Nα-Isobutyl-Nα-(4-methylbenzenesulfonyl)-Nε-[N′α-(2-thiophenesulfonyl)-L-phenylalanyl]-L-lysine Ethanolamide]",> 0.3
6,"Cc1ccc(S(=O)(=O)N[C@@H](CC(N)=O)C(=O)NCCCC[C@@H](C(=O)O)N(CC(C)C)S(=O)(=O)c2ccc(C)cc2)cc1 [Example 61, Nα-Isobutyl-Nα-(4-methylbenzenesulfonyl)-Nε-[N′α-(4-methylbenzenesulfonyl)-L-asparagyl]-L-lysine]",0.296
7,"Cc1ccc(S(=O)(=O)N(CC(C)C)[C@@H](CCCCNC(=O)[C@H](CC(N)=O)NC(=O)C(C)(C)C)C(=O)O)cc1 [Example 62, Nα-Isobutyl-Nα-(4-methylbenzenesulfonyl)-Nε-(N′α-pivaloyl-L-asparagyl)-L-lysine]",0.212
8,"Cc1ccc(S(=O)(=O)N(CC(C)C)[C@@H](CCCCNC(=O)[C@H](CC(N)=O)NC(=O)c2ccccc2)C(=O)O)cc1 [Example 63, Nα-Isobutyl-Nα-(4-methylbenzenesulfonyl)-Nε-(N′α-benzoyl-L-asparagyl)-L-lysine]",0.193
9,Cc1ccc(S(=O)(=O)N(CC(C)C)[C@@H](CCCCNC(=O)[C@@H]2Cc3ccccc3CN2S(=O)(=O)c2ccc(C)cc2)C(=O)O)cc1 [Example 65],0.024
10,"Cc1ccc(S(=O)(=O)N[C@H](Cc2ccccc2)C(=O)NCCCC[C@H](C(=O)O)N(CC(C)C)S(=O)(=O)c2ccc(C)cc2)cc1 [Example 66, Nα-Isobutyl-Nα-(4-methylbenzenesulfonyl)-Nε-[N′α-(4-methylbenzenesulfonyl)-D-phenylalanyl]-D-lysine]",> 0.3
11,"Cc1ccc(S(=O)(=O)N[C@@H](Cc2ccccc2)C(=O)NCCCC[C@H](C(=O)O)N(CC(C)C)S(=O)(=O)c2ccc(C)cc2)cc1 [Example 67, Nα-Isobutyl-Nα-(4-methylbenzenesulfonyl)-Nε-[N′α-(4-methylbenzenesulfonyl)-L-phenylalanyl]-D-lysine]",> 0.3

# Same assay, conditions: Anti-protease activity of Ne-amino acid substituted L-lysine derivatives and analogs of formula I; read-out: Ki
row,SMILES,Ki [µM]
1,"Cc1ccc(S(=O)(=O)N(CC(=O)NCCCC[C@@H](C(=O)O)N(CC(C)C)S(=O)(=O)c2ccc(C)cc2)CC(C)C)cc1 [Example 55, Nα-Isobutyl-Nα-(4-methylbenzenesulfonyl)-Nε-[N′α-isobutyl-N′α-(4-methylbenzenesulfonyl)-glycyl]-L-lysine]",0.014
2,"Cc1ccc(S(=O)(=O)N(CC(C)C)[C@@H](CCCCNC(=O)[C@H](Cc2ccccc2)NS(=O)(=O)c2cccs2)C(=O)NN)cc1 [Example 64, Nα-Isobutyl-Nα-(4-methylbenzenesulfonyl)-Nε-[N′α-(2-thiophenesulfonyl)-L-phenylalanyl]-L-lysine Hydrazide]",> 0.3
